In ChEMBL document CHEMBL4052616, “Isoniazid derivatives and their anti-tubercular activity” (Eur J Med Chem, 2017):
Converted amounts (≈) assume the structure as drawn.

Columns and labels:
[1] = test system: Mycobacterium tuberculosis; experiment: Antimycobacterial activity against Mycobacterium tuberculosis infected in C57BL/6 mouse assessed as reduction in colony forming units per lung at 100 mg/kg administered via gavage for 2 days measured last post dose; type: functional
[2] = test system: Mycobacterium tuberculosis; experiment: Potency index, ratio of isoniazid MIC to compound MIC for Mycobacterium tuberculosis clinical isolate 35829; type: functional
[3] = test system: Mycobacterium tuberculosis; experiment: Antimycobacterial activity against Mycobacterium tuberculosis clinical isolate 303 by broth dilution method; type: functional
[4] = test system: Mycobacterium tuberculosis; experiment: Potency index, ratio of isoniazid MIC to compound MIC for Mycobacterium tuberculosis clinical isolate 303; type: functional
[5] = test system: Mycobacterium tuberculosis; experiment: Antimycobacterial activity against Mycobacterium tuberculosis Erdman ATCC 35801 by broth dilution method; type: functional
[6] = test system: Mycobacterium tuberculosis; experiment: Antimycobacterial activity against Mycobacterium tuberculosis clinical isolate 35829 by broth dilution method; type: functional
[7] = test system: Mycobacterium tuberculosis; experiment: Potency index, ratio of isoniazid MIC to compound MIC for Mycobacterium tuberculosis clinical isolate 1889; type: functional
[8] = test system: Mycobacterium tuberculosis; experiment: Antimycobacterial activity against Mycobacterium tuberculosis clinical isolate 1889 by broth dilution method; type: functional
[9] = test system: Mycobacterium tuberculosis; experiment: Growth inhibition of Mycobacterium tuberculosis H37Rv ATCC 27294 measured after 5 to 8 days; type: functional
[10] = test system: Mycobacterium tuberculosis; experiment: Antimycobacterial activity against Mycobacterium tuberculosis H37Rv ATCC 27294 measured after 5 to 8 days; type: functional
[11] = test system: Mycobacterium tuberculosis; experiment: Antimycobacterial activity against Mycobacterium tuberculosis H37Rv after 5 days by microplate alamar blue assay; type: functional; details: 120 h
[12] = test system: Mycobacterium tuberculosis; experiment: Antitubercular activity against Mycobacterium tuberculosis H37Rv; type: functional
[13] = Inhibition of DNA gyrase (unknown origin)
[14] = test system: Mycobacterium tuberculosis; experiment: Potency index, ratio of pyrazinamide MIC to compound MIC for Mycobacterium tuberculosis H37Rv; type: functional
[15] = test system: Mycobacterium tuberculosis; experiment: Antimycobacterial activity against Mycobacterium tuberculosis H37Rv by NCCLS method; type: functional
[16] = test system: Mycobacterium tuberculosis; experiment: Antitubercular activity against Mycobacterium tuberculosis H37Rv after 10 days by tube dilution method; type: functional; details: 240 h
[17] = test system: Mycobacterium tuberculosis; experiment: Antimycobacterial activity against Mycobacterium tuberculosis H37Rv ATCC 27294 at < 0.1 ug/mL by microplate alamar blue assay; type: functional
[18] = test system: Mycobacterium tuberculosis; experiment: Antimycobacterial activity against Mycobacterium tuberculosis 331/88 after 14 to 21 days by micromethod; type: functional
[19] = test system: Mycobacterium avium; experiment: Antimycobacterial activity against Mycobacterium avium 330/88 measured after 14 to 21 days by micromethod; type: functional
[20] = test system: Mycobacterium tuberculosis; experiment: Antimycobacterial activity against Mycobacterium tuberculosis H37Rv after 10 to 12 days by serial dilution method; type: functional
[21] = test system: Mycobacterium tuberculosis; experiment: Antimycobacterial activity against human sensitive Mycobacterium tuberculosis measured after six weeks; type: functional
[22] = test system: Mycobacterium tuberculosis; experiment: Antimycobacterial activity against Bovin sensitive Mycobacterium tuberculosis measured after six weeks; type: functional

## Cc1ccc(C)n1NC(=O)c1ccccc1
[1]
  Activity: 1.5 log10CFU
[2]
  Ratio: 2
[3]
  MIC: 4 to 8 µg/mL (≈ 18.7 to 37.3 µM)
[4]
  Ratio: 2
[5]
  MIC: 3.2 µg/mL (≈ 14.9 µM)
[6]
  MIC: 4 to 8 µg/mL (≈ 18.7 to 37.3 µM)
[7]
  Ratio: 2
[8]
  MIC: 4 to 8 µg/mL (≈ 18.7 to 37.3 µM)

## CCn1cc(C(=O)O)c(=O)c2cc(F)c(N3CCN(CN4C(=O)/C(=N\NC(=O)c5ccncc5)c5cc(Cl)ccc54)CC3)cc21
[9]
  growth inhibition (GI): 99%
[10]
  MIC: 6.25 to 12.5 µg/mL (≈ 9.89 to 19.8 µM)

## O=C(NN1C(=O)C(Cl)C1c1ccccc1O)c1ccncc1 (centres undefined)
[11]
  MIC: 0.62 µg/mL (≈ 1.95 µM)

## COc1cc(C2C(Cl)C(=O)N2NC(=O)c2ccncc2)ccc1O (centres undefined)
[11]
  MIC: 0.31 µg/mL (≈ 0.891 µM)

## O=C(NN1C(=O)C(Cl)C1c1ccc([N+](=O)[O-])cc1)c1ccncc1 (centres undefined)
[11]
  MIC: 5 µg/mL (≈ 14.4 µM)

## O=C(NN1C(=O)C(Cl)C1c1cc2cc(Br)ccc2nc1Cl)c1ccncc1 (centres undefined)
[12]
  MIC: 12.5 µg/mL

## C/C(=N\NC(=O)c1ccncc1)c1ccc(N)cc1
[12]
  MIC: 0.23 µM

## COc1c(N2CCN(CN3C(=O)/C(=N\NC(=O)c4ccncc4)c4ccccc43)C(C)C2)c(F)cc2c(=O)c(C(=O)O)cn(C3CC3)c12 (centres undefined)
[13]
  IC50: 4 µg/mL (≈ 6.12 µM)
[12]
  MIC: 0.2 µg/mL

## Cc1c(C(=O)NNC(=O)c2ccncc2)nn(-c2ccc(Cl)cc2Cl)c1-c1ccccc1
[14]
  Ratio: 4
[15]
  MIC: 25 µg/mL (≈ 53.6 µM)

## COc1nc2ccccc2cc1C1C(Cl)C(=O)N1NC(=O)c1ccncc1 (centres undefined)
[12]
  MIC: 3.12 to 6.25 µg/mL

## CCC(CO)Nc1nc(Cl)nc(NNC(=O)c2ccncc2)n1 (centres undefined)
[16]
  MIC: 20 µg/mL (≈ 59.2 µM)

## C[C@]12CC/C(=N\NC(=O)c3ccncc3)C[C@@H]1CC[C@@H]1[C@@H]2CC[C@]2(C)/C(=N/NC(=O)c3ccncc3)CC[C@@H]12
[17]
  inhibition (INH): >95%

## CCCCCCCCc1ccc(NC(=O)NNC(=O)c2ccncc2)cc1
[18]
  MIC: 1 to 2 µM (≈ 0.368 to 0.737 µg/mL)
[19]
  MIC: 1 to 2 µM (≈ 0.368 to 0.737 µg/mL)

## C[C@]12CC[C@H]3[C@@](CC[C@@H]4[C@]3(C)CCC[C@@]4(C)C(=O)O)(CC1=O)C2
[20]
  MIC: 50 µg/mL (≈ 157 µM)

## COc1ccc(C2C(Cl)C(=O)N2NC(=O)c2ccncc2)cc1 (centres undefined)
[11]
  MIC: 0.31 to 5 µg/mL (≈ 0.934 to 15.1 µM)

## C=CCN1C(=O)/C(=N\NC(=O)c2ccncc2)c2ccccc21
[21]
  MIC: 2.7 to 3.5 µg/mL (≈ 8.81 to 11.4 µM)
[22]
  MIC: 2.7 to 3.5 µg/mL (≈ 8.81 to 11.4 µM)

## C=C1C[C@]23CC[C@@H]4[C@](C)(CCC[C@@]4(C)C(=O)NNc4ccncc4)[C@H]2CC[C@]1(O[C@@H]1O[C@H](COC(C)=O)[C@@H](OC(C)=O)[C@H](OC(C)=O)[C@H]1O[C@@H]1O[C@H](COC(C)=O)[C@@H](OC(C)=O)[C@H](OC(C)=O)[C@H]1O)C3
[20]
  MIC: 5 µg/mL (≈ 5.07 µM)

## COc1nc2ccc(Br)cc2cc1C1C(Cl)C(=O)N1NC(=O)c1ccncc1 (centres undefined)
[12]
  MIC: 3.12 to 6.25 µg/mL

## O=C(NN1C(=O)C(Cl)C1c1ccco1)c1ccncc1 (centres undefined)
[11]
  MIC: 1.25 µg/mL (≈ 4.29 µM)

## O=C(NN1C(=O)C(Cl)C1c1cc2cc(Cl)ccc2nc1Cl)c1ccncc1 (centres undefined)
[12]
  MIC: 12.5 µg/mL

## O=C(CNNC(=O)c1ccncc1)COc1ccc(/C=C2\SC(=O)NC2=O)cc1
[12]
  MIC: 50 to 100 µg/mL

## C=C1C[C@]23CC[C@@H]4[C@](C)(CCC[C@@]4(C)C(=O)O[C@@H]4O[C@H](CO)[C@@H](O)[C@H](O)[C@H]4O)[C@H]2CC[C@]1(O[C@@H]1O[C@H](CO)[C@@H](O)[C@H](O)[C@H]1O[C@@H]1O[C@H](CO)[C@@H](O)[C@H](O)[C@H]1O)C3
[20]
  MIC: 7.5 µg/mL (≈ 9.32 µM)
